In brackets after ≈: the same amount, converted by molar mass. Read-outs that look alike come from different tables or passages of the source. *1 amine or outer side, *2 acyl side, *3 side chain or, on linkers, in order; H or OH if unused. Where a SMILES comes first, the peptide text is derived from it. Bridges are numbered along the chain shown (N, C = ends). [ ]: non-standard residue; d: D form. The star is where a group is joined. ξ: configuration not given here. Phe(3,5-F2) = N[C@@H](Cc1cc(F)cc(F)c1)C(=O)O; NH(4-OCF3-phenyl) = FC(F)(F)Oc1ccc(N*)cc1; Pro(4R-Me) = C[C@H]1CN[C@H](C(=O)O)C1; NMeT = CN[C@H](C(=O)O)[C@@H](C)O; NH(4-Me-phenyl) = Cc1ccc(N*)cc1; ξNMeThr = CNC(C(=O)O)[C@@H](C)O; aThr = C[C@H](O)[C@H](N)C(=O)O; NMeA = CN[C@@H](C)C(=O)O; CO = O=C([*:1])[*:2]; ξP = O=C(O)C1CCCN1
What was measured:
Assay type in all cases: cell-based
[1] = Cytotoxicity assay (CellTiter-Glo cell viability, 72 hours); conditions: African green monkey
How it was run: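 Vero cells, 5000/well, grown overnight at 37° C, 5% CO2 in DMEM with 10% FBS, then exposed to serial compound dilutions or DMSO for 72 hours. Viability read by CellTiter-Glo luminescence. IC50 from duplicate wells, reported as range over two independent experiments.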

[2] = test system: Enterococcus faecalis, ATCC 33186; experiment: Minimal inhibitory concentration assay (microbroth dilution)
How it was run: (§1)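 Antibacterial activity was measured by CLSI-standard microdilution in broth, using overnight aerobic incubation at 37 °C. Growth inhibition was scored visually, and MIC taken as the lowest concentration preventing growth.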

[3] = test system: Staphylococcus aureus, USA 300 wherein ClpP is inactivated; experiment: Minimal inhibitory concentration assay
How it was run: as §1

[4] = test system: Streptococcus pneumoniae, R6; experiment: Minimal inhibitory concentration assay; conditions: read-out: Minimal Inhibitory Concentrations S. pneumoniae R6
How it was run: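 Microbroth dilution with two-fold serial compound dilutions in broth, incubated aerobically overnight at 37° C. MIC taken as the lowest concentration preventing bacterial growth.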

[5] = test system: Staphylococcus aureus, USA 300; experiment: Minimal inhibitory concentration assay; conditions: USA300, read-out: Minimal Inhibitory Concentrations S. aureus USA 300
How it was run: as §1

[6] = Vero cells, 72 hours, growth inhibition, read-out: Cytotoxicity IC50
[7] = Enterococcus faecalis, ATCC33186, read-out: Minimal Inhibitory Concentrations E. faecalis ATCC 33186

Row | SMILES | IC50 at 72 h [1, 6] [µM] | MIC [2, 7] [µM] | Minimal Inhibitory Concentrations S. aureus USA 300 ΔClpP [3] [µM] | MIC [4] [µM] | IC50 at 72 h [1] [µM] | MIC ([2]; E. faecalis ATCC 33186; read-out: Minimal Inhibitory Concentrations E. faecalis ATCC 33186) [µM] | MIC ([2]; Enterococcus faecalis, ATCC33186; read-out: Minimal Inhibitory Concentrations E. faecalis ATCC 33186) [µM] | MIC [5] [µM]
1 | Cc1ccc(NC(=O)N[C@@H](Cc2cc(F)cc(F)c2)C(=O)N[C@H]2COC(=O)[C@@H]3C[C@@H](C)CN3C(=O)[C@H](C)NC(=O)C([C@@H](C)O)N(C)C(=O)[C@@H]3CCCN3C2=O)cc1 (stereo partly drawn) [Compound 322, (S)-3-(3,5-difluorophenyl)-N-((2R,6S,9R,11aS,17S,20aS)-9-((R)-1-hydroxyethyl)-2,6,10-trimethyl-5,8,11,16,20-pentaoxohexadecahydro-1H,5H,16H-dipyrrolo[2,1-c:2′,1′-l][1]oxa[4,7,10,13]tetraazacyclohexadecin-17-yl)-2-(3-(p-tolyl)ureido)propanamide] ({NH(4-Me-phenyl)-CO}-[Phe(3,5-F2)]SP[ξNMeThr]A[Pro(4R-Me)]; ester 2-C) | 47.8 ± 3.2 | > 20 | 0.625 | 0.156 (≈ 0.124 µg/mL) | – | – | – | –
2 | C[C@@H]1C[C@H]2C(=O)OC[C@H](NC(=O)[C@H](Cc3ccccc3)NC(=O)Nc3ccc(OC(F)(F)F)cc3)C(=O)N3CCC[C@H]3C(=O)N3CCCC[C@H]3C(=O)N[C@@H](C)C(=O)N2C1 [Compound 205] | – | – | – | 0.2 (≈ 0.166 µg/mL) | 88.3 ± 15.2 | 0.02 (≈ 0.0166 µg/mL) | – | –
3 | C[C@@H]1NC(=O)[C@H](C)N(C)C(=O)[C@@H]2CCCN2C(=O)[C@@H](NC(=O)[C@H](Cc2ccccc2)NC(=O)Nc2ccc(OC(F)(F)F)cc2)COC(=O)C2CCCN2C1=O (stereo partly drawn) [Compound 213, (2S)-3-phenyl-2-(3-(4-(trifluoromethoxy)phenyl)ureido)-N-((6S,9S,11aS,17S)-6,9,10-trimethyl-5,8,11,16,20-pentaoxohexadecahydro-1H,5H,16H-dipyrrolo[2,1-c:2′,1′-l][1]oxa[4,7,10,13]tetraazacyclohexadecin-17-yl)propanamide] ({NH(4-OCF3-phenyl)-CO}-FSP[NMeA]A[ξP]; ester 2-C) | – | – | – | < 0.2 | 51.8 ± 1 | – | 0.39 (≈ 0.307 µg/mL) | –
4 | Cc1ccc(NC(=O)N[C@@H](Cc2cc(F)cc(F)c2)C(=O)N[C@H]2COC(=O)[C@@H]3C[C@@H](C)CN3C(=O)[C@H](C)NC(=O)[C@@H]3CCCCN3C(=O)[C@@H]3CCCN3C2=O)cc1C [Compound 207, (S)-3-(3,5-difluorophenyl)-N-((2R,6S,8aS,14aS,20S,23aS)-2,6-dimethyl-5,8,14,19,23-pentaoxooctadecahydro-1H,5H,14H,19H-pyrido[2,1-i]dipyrrolo[2,1-c:2′,1′-l][1]oxa[4,7,10,13]tetraazacyclohexadecin-20-yl)-2-(3-(3,4-dimethylphenyl)ureido)propanamide] | 31.1 ± 5.6 | < 0.2 | – | < 0.2 | – | – | – | –
5 | Cc1ccc(NC(=O)N[C@@H](Cc2ccccc2)C(=O)N[C@H]2COC(=O)[C@@H]3C[C@@H](C)CN3C(=O)[C@H](C)NC(=O)[C@@H]3CCCCN3C(=O)[C@@H]3CCCN3C2=O)cc1C [Compound 206, (S)—N-((2R,6S,8aS,14aS,20S,23aS)-2,6-dimethyl-5,8,14,19,23-pentaoxooctadecahydro-1H,5H,14H,19H-pyrido[2,1-i]dipyrrolo[2,1-c:2′,1′-l][1]oxa[4,7,10,13]tetraazacyclohexadecin-20-yl)-2-(3-(3,4-dimethylphenyl)ureido)-3-phenylpropanamide] | 74 ± 7.7 | < 0.2 | – | < 0.2 | – | – | – | –
6 | C[C@@H]1C[C@H]2C(=O)O[C@@H](C)[C@H](NC(=O)[C@H](Cc3cc(F)cc(F)c3)NC(=O)Nc3ccc(OC(F)(F)F)cc3)C(=O)N3CCC[C@H]3C(=O)N(C)[C@@H]([C@@H](C)O)C(=O)N[C@@H](C)C(=O)N2C1 [Compound 41, (S)-3-(3,5-difluorophenyl)-N-((2R,6S,9S,11aS,17S,18S,20aS)-9-((R)-1-hydroxyethyl)-2,6,10,18-tetramethyl-5,8,11,16,20-pentaoxohexadecahydro-1H,5H,16H-dipyrrolo[2,1-c:2′,1′-l][1]oxa[4,7,10,13]tetraazacyclohexadecin-17-yl)-2-(3-(4-(trifluoromethoxy)phenyl)ureido)propanamide] ({NH(4-OCF3-phenyl)-CO}-[Phe(3,5-F2)][aThr]P[NMeT]A[Pro(4R-Me)]; ester 2-C) | – | – | 50 | 0.02 (≈ 0.0176 µg/mL) | 23.9 ± 2 | – | – | 0.02 (≈ 0.0176 µg/mL)
